Converted amounts (≈) assume the structure as drawn. Positions of bridges follow the written chain, without caps; N, C: chain ends. Residues, ends and D or L forms follow the SMILES beside them. No end group written: not given here.
Legend:
[1] = tested on: flu virus strains Ca0409 and Ft. Monmout; settings: both strains
[2] = tested on: H1N1 (CA09) influenza virus; set-up: species or system Ferrets; settings: in vivo
[3] = tested on: biotinylated HA proteins; type: physicochemical, influenza
[4] = tested on: A/California/04/09 (H1N1) (CA09); set-up: species or system BALB/c mice; settings: mouse, in vivo
[5] = tested on: PR8 influenza virus; type: cell-based, influenza virus (Madin-Darby Canine Kidney Epithelial Cells)
[6] = tested on: CA09 influenza virus; type: cell-based, influenza virus (Madin-Darby Canine Kidney Epithelial Cells)
[7] = tested on: Virus Ft. Monmouth
[8] = tested on: Virus Ca0409

Compound	IC50 against flu virus strains Ca0409 and Ft. Monmout [1]	changes in temperature [2]	clinical signs of disease [2]	weight loss [2]	loss of binding activity after high temperature exposure [3]	dose fold lower on a mass basis than the FI6v3 dose required for equivalent protection [4]	survival [4]	weight loss [4]	protection ([4]; iv)	EC50 fold lower than FI6v3 and HB36.6 on a mass basis [5]	EC50 versus FI6v3 and HB36.6 on a molar basis [5]	EC50 fold lower than FI6v3 and HB36.6 on a mass basis [6]	EC50 versus FI6v3 and HB36.6 on a molar basis [6]	EC50 for inhibition of viral replication in vitro [7]	EC50 for inhibition of viral replication in vitro [8]
CC[C@H](C)[C@@H]1NC(=O)[C@H](CCC(=O)O)NC(=O)[C@H](C)NC(=O)[C@H](C)NC(=O)[C@H]([C@@H](C)O)NC(=O)[C@H](CCC(N)=O)NC(=O)[C@@H]2CSSC[C@H](NC(=O)[C@H](CC(N)=O)NC(=O)CNC(=O)[C@H](CC(N)=O)NC(=O)[C@H](CC(=O)O)NC(=O)[C@H](C(C)C)NC(=O)[C@H](CCSC)NC(=O)[C@H]([C@@H](C)CC)NC(=O)[C@H](CCCCN)NC(=O)[C@H](C(C)C)NC(=O)[C@H]([C@@H](C)O)NC(=O)[C@H](Cc3ccc(O)cc3)NC(=O)CNC(=O)[C@H](Cc3ccccc3)NC(=O)[C@H](C)NC(=O)[C@H](CCCNC(=N)N)NC(=O)[C@H](Cc3c[nH]c4ccccc34)NC1=O)C(=O)N[C@@H](CCCNC(=N)N)C(=O)N[C@@H](CC(C)C)C(=O)N[C@@H](Cc1c[nH]cn1)C(=O)N[C@@H](C(C)C)C(=O)N[C@H](C(=O)O)CSSC[C@H](N)C(=O)N[C@@H]([C@@H](C)CC)C(=O)N[C@@H](CCC(=O)O)C(=O)N[C@@H](CCC(N)=O)C(=O)N[C@@H](CO)C(=O)N[C@@H](Cc1ccccc1)C(=O)N[C@@H]([C@@H](C)O)C(=O)N[C@@H]([C@@H](C)O)C(=O)N[C@@H](CC(C)C)C(=O)N[C@@H](Cc1ccccc1)C(=O)N[C@@H](C)C(=O)N2 [HB1.6928.2.3] (H-CIEQSFTTLFACQTAAEIWRAFGYTVKIMVDNGNCRLHVC-OH; disulfide 1-40, 12-35; N-terminus and C-terminus assumed)	~0.02 ng/mL (≈ 0.00441 nM)	no significant changes in temperature	minimal clinical signs of disease	no significant weight loss	no detectable loss of binding	100 fold	100%	< 10%	little protection	more than 100 fold	comparable	more than 100 fold	comparable	0.02 ng/mL	–
TIEQSFTTLFAAQTAAEIWRAFGYTVKIMQDNGNWRLHVT [TAWQT CS15990]	–	–	–	–	–	–	–	–	–	–	–	–	–	2 ng/mL	20 ng/mL
CC[C@H](C)[C@@H]1NC(=O)[C@H](CCC(=O)O)NC(=O)[C@H](C)NC(=O)[C@H](C)NC(=O)[C@H]([C@@H](C)O)NC(=O)[C@H](CCC(N)=O)NC(=O)[C@H](C)NC(=O)[C@H](C)NC(=O)[C@H](Cc2ccccc2)NC(=O)[C@H](CC(C)C)NC(=O)[C@H]([C@@H](C)O)NC(=O)[C@H]([C@@H](C)O)NC(=O)[C@H](Cc2ccccc2)NC(=O)[C@H](CO)NC(=O)[C@H](CCC(N)=O)NC(=O)[C@H](CCC(=O)O)NC(=O)[C@H]([C@@H](C)CC)NC(=O)[C@@H](N)CSSC[C@@H](C(=O)O)NC(=O)[C@H](C(C)C)NC(=O)[C@H](Cc2c[nH]cn2)NC(=O)[C@H](CC(C)C)NC(=O)[C@H](CCCNC(=N)N)NC(=O)[C@H](Cc2c[nH]c3ccccc23)NC(=O)[C@H](CC(N)=O)NC(=O)CNC(=O)[C@H](CC(N)=O)NC(=O)[C@H](CC(=O)O)NC(=O)[C@H](CCC(N)=O)NC(=O)[C@H](CCSC)NC(=O)[C@H]([C@@H](C)CC)NC(=O)[C@H](CCCCN)NC(=O)[C@H](C(C)C)NC(=O)[C@H]([C@@H](C)O)NC(=O)[C@H](Cc2ccc(O)cc2)NC(=O)CNC(=O)[C@H](Cc2ccccc2)NC(=O)[C@H](C)NC(=O)[C@H](CCCNC(=N)N)NC(=O)[C@H](Cc2c[nH]c3ccccc23)NC1=O [AQW CS15989] (H-CIEQSFTTLFAAQTAAEIWRAFGYTVKIMQDNGNWRLHVC-OH; disulfide 1-40; N-terminus and C-terminus assumed)	–	–	–	–	–	–	–	–	–	–	–	–	–	10 ng/mL	10 ng/mL

From US10766929B2, “De novo designed hemagglutinin binding proteins” (UNIVERSITY OF WASHINGTON, priority 2017, dated 2020)
